Holding throughout (type): cell-based
Experiment [1] deals with NCI-H358 cells (KRAS G12C mutation). Description: Proliferation inhibition measured by CTG (CellTiter Glo), NCI-H358. The following applies: Homo sapiens, Table 1, CTG, 120 hours incubation, class symbol, read-out: IC50 (H358). From the text: (§1) NCI-H358 is a human non-small cell lung cancer cell line with KRAS G12C mutation; PANC-1 and AsPC-1 are pancreatic cancer cell lines with KRAS G12D mutation; AGS is a gastric cancer cell line with KRAS G12D mutation; A427 is a lung cancer cell line with KRAS G12D mutation; THP-1 is a leukemia cell line with NRAS G12D mutation; Hs 578T is a breast cancer cell line with HRAS G12D mutation; SW480 is a colon cancer cell lines with KRAS G12V mutation; A375 is a wild type malignant melanoma cell line. The proliferation inhibitory effect of the compounds on various mutations was evaluated by determining the proliferation inhibitory activity of the compounds on these cell lines.
(§2) The assay was conducted on either 384-well plates or 96-well plates. The procedures are as follows:
(§3) The cell suspensions were added to 384- or 96-well plates (384-well plate: 40 μL; 96-well plate: […]) except for peripheral wells. The plates were incubated in a carbon dioxide incubator overnight. Prepared compounds (10 concentration gradients by serial 3-fold dilution) were added to the wells. The cell plates were incubated in a carbon dioxide incubator for 120 hours. CellTiter Glo reagent (384 well plate: 25 μL; 96 well plate: 100 μL) was added to the 384- or 96-well plates. The plates were shaken for 10 minutes away from light, and incubated for 10 minutes. The plates were read by EnVision system. Inhibition curves were plotted using XLFit and IC50 values were calculated. “IC50>10 μM” is denoted by “*”, “10 μM≥IC50>1 μM” is denoted by “**”, “1 μM≥IC50>100 nM” is denoted by “***”, and “IC50≤100 nM” is denoted by “****”.

Experiment [2] deals with AsPC-1 pancreatic cancer cell line (KRAS G12D mutation). Description: Proliferation inhibition measured by CTG (CellTiter Glo), AsPC-1. To be noted: Homo sapiens, ASPC1; Table 1; CTG, 120 hours incubation; class symbol.
From the text: as §1, §2, §3

Experiment [3] deals with A427 lung cancer cell line (KRAS G12D mutation). Description: Proliferation inhibition measured by CTG (CellTiter Glo), A427. The following applies: Homo sapiens, A-427; Table 1; CTG, 120 hours incubation; class symbol.
From the text: as §1, §2, §3

Experiment [4] has as its system A375 wild type malignant melanoma cell line. Description: Proliferation inhibition measured by CTG (CellTiter Glo), A375. To be noted: Homo sapiens, A-375; Table 1; CTG, 120 hours incubation; class symbol; read-out: IC50 (A375).
From the text: as §1, §2, §3

Experiment [5] concerns AGS gastric cancer cell line (KRAS G12D mutation). Description: Proliferation inhibition measured by CTG (CellTiter Glo), AGS. The following applies: Table 1; CTG, 120 hours incubation; class symbol; read-out: IC50 (AGS).
From the text: as §1, §2, §3

The test system of experiment [6] is Hs 578T breast cancer cell line (HRAS G12D mutation). Description: Proliferation inhibition measured by CTG (CellTiter Glo), Hs 578T. The following applies: Homo sapiens, Table 1, CTG, 120 hours incubation, class symbol.
From the text: as §1, §2, §3

The subject of experiment [7] is THP-1 leukemia cell line (NRAS G12D mutation). Description: Proliferation inhibition measured by CTG (CellTiter Glo), THP-1. The following applies: Homo sapiens, Table 1, CTG, 120 hours incubation, class symbol.
From the text: as §1, §2, §3

pIC50: −log10 of the molar value.

Consider `Cc1cccc2cccc(N3CCc4c(nc(OC[C@@H]5CCCN5C)nc4N4CCn5cncc5C4)C3)c12` [Compound 17], for which the pIC50 in experiment [1], in experiment [2], in experiment [3] and in experiment [4] was 6.00 to 7.00 each time.

With `CN1CCC2(CC1)CC(Oc1nc3c(c(N4CCn5cncc5C4)n1)CCN(c1cccc4cccc(Cl)c14)C3)C2` [Compound 35], the pIC50 was 6.00 to 7.00 in experiment [1]; 5.00 to 6.00 in experiment [2]; 5.00 to 6.00 in experiment [5]; 5.00 to 6.00 in experiment [6]; 5.00 to 6.00 in experiment [7]; 5.00 to 6.00 in experiment [4].

For the compound `CN1CCC[C@H]1COc1nc2c(c(N3CCn4c(cnc4N)C3)n1)CCN(c1cccc3cccc(Cl)c13)C2` [Compound 7], the pIC50 in experiment [1] is 6.00 to 7.00; in experiment [2], 5.00 to 6.00; in experiment [3], 6.00 to 7.00; in experiment [4], 6.00 to 7.00.

With `COC1CN(c2nc(OC[C@@H]3CCCN3C)nc3c2CCN(c2cccc4cccc(Cl)c24)C3)Cc2cncn21` (stereo partly drawn) [Compound 23], the pIC50 in experiment [1] was 6.00 to 7.00; in experiment [2], 6.00 to 7.00; in experiment [5] it was 6.00 to 7.00; in experiment [6] it was 5.00 to 6.00; in experiment [7], 6.00 to 7.00; in experiment [4] it was 6.00 to 7.00.

Turning to `CN1CCC[C@H]1COc1nc2c(c(N3CCn4c(cnc4CO)C3)n1)CCN(c1cccc3cccc(Cl)c13)C2` [Compound 6], the pIC50 in experiment [1], in experiment [2], in experiment [3] and in experiment [4] was 6.00 to 7.00 throughout.

Take `CN(C)CCCOc1nc2c(c(N3CCn4cncc4C3)n1)CCN(c1cccc3cccc(Cl)c13)C2` [Compound 21]: the pIC50 in experiment [1] is at least 7.00; in experiment [2] it was 6.00 to 7.00; in experiment [5], at least 7.00; in experiment [6], 6.00 to 7.00; in experiment [7] it was 6.00 to 7.00; in experiment [4], 6.00 to 7.00.

As for `CN1CCC[C@H]1COc1nc2c(c(N3CCn4c(cnc4C#N)C3)n1)CCN(c1cccc3cccc(Cl)c13)C2` [Compound 8], the pIC50 in experiment [1] is 5.00 to 6.00; in experiment [2], 5.00 to 6.00; in experiment [3], 6.00 to 7.00; in experiment [4] it was 6.00 to 7.00.

As to `CC(CN(C)C)Oc1nc2c(c(N3CCn4cncc4C3)n1)CCN(c1cccc3cccc(Cl)c13)C2` (stereo not drawn) [Compound 29], the negative-log IC50 (pIC50) in experiment [1] is at least 7.00; in experiment [2] it was at least 7.00; in experiment [5] it was at least 7.00; in experiment [6] it was 6.00 to 7.00; in experiment [7], 6.00 to 7.00; in experiment [4], 6.00 to 7.00.

Take `CC1CN(c2nc(OC[C@@H]3CCCN3C)nc3c2CCN(c2cccc4cccc(Cl)c24)C3)Cc2cncn21` (stereo partly drawn) [Compound 11]: the pIC50 in experiment [1], in experiment [2], in experiment [3] and in experiment [4] was 6.00 to 7.00 in each case.

Consider `CN1CCC[C@H]1COc1nc2c(c(N3CCn4cnc(Br)c4C3)n1)CCN(c1cccc3cccc(Cl)c13)C2` [Compound 33], for which the negative logarithm of the IC50 (pIC50) in experiment [1] is at least 7.00; in experiment [2] it was 6.00 to 7.00; in experiment [5] it was at least 7.00; in experiment [6] it was 6.00 to 7.00; in experiment [7], at least 7.00; in experiment [4] it was 6.00 to 7.00.

As to `CN(C)CCOc1nc2c(c(N3CCn4cncc4C3)n1)CCN(c1cccc3cccc(Cl)c13)C2` [Compound 16], the pIC50 in experiment [1] was 6.00 to 7.00; in experiment [2] it was at least 7.00; in experiment [3], at least 7.00; in experiment [4], 6.00 to 7.00.

Regarding `CN1CCC[C@H]1COc1nc2c(c(N3CCc4oncc4C3)n1)CCN(c1cccc3cccc(Cl)c13)C2` [Compound 34], the pIC50 in experiment [1] was 6.00 to 7.00; in experiment [2], 6.00 to 7.00; in experiment [5], 6.00 to 7.00; in experiment [6] it was 5.00 to 6.00; in experiment [7] it was 6.00 to 7.00; in experiment [4] it was 5.00 to 6.00.

Source of the values: patent US20230391785A1, “NITROGEN-CONTAINING HETEROCYCLIC COMPOUND, METHOD FOR PREPARING SAME AND USE OF SAME” (280 Bio, Inc., priority 2021, published 2023).
